How the values were obtained:
[1] = tested on: fear-conditioned mice; experiment: Cued-fear conditioning (freezing behavior, context recall); type: in vivo
Description: Cued-fear conditioning. Experiments were performed at the same time of the day during the light phase with 3-4 months-old male and female mice (n=14-19 mice/genotype, balanced sex). The training and test sessions were video recorded. Mice were placed in a shuttle box chamber (AccuScan Instruments) for 120 sec before exposing them to a neutral conditioned stimulus (CS+) -a tone of 80 dB for 30s, presented together with an aversive unconditioned stimulus (US) -an electrical footshock of 0.3 mA/2 sec, except in the case of the PTSD-eliciting protocol, where 2.5 mA shocks were used. Training consisted of 5 consecutive trials with 90 sec intertrials (CS-). Animals remained in the chamber for 5 min more before returning them to their home cages. Twenty-four hours later, fear conditioning was tested placing the animals in a different context using the same protocol but without the unconditioned stimulus (US). […] Freezing behavior was defined by the absence of movement except of breathing and heart beating. Context-dependent extinction was tested 1 and 5 weeks later (delayed extinction). Mice were placed in the same context for 5 min to measure their freezing behavior. The latter unveils PTSD-like behaviour when it is abnormally retained.
Drug administration. Human recombinant IGF-I (Pre-Protech, USA) or vehicle (saline) were administered intracerebroventricularly (icv, 50 µg/kg/day) using Alzet osmotic minipumps for 7 days (Model 1007D), and the brain infusion kit 3 (Alzet, USA) with the following stereotaxic coordinates: AP= -0.5; ML= 1.1; DV= -2.5. Alzet pumps were implanted subcutaneously between the scapulae. In other experiments IGF-I was given intraperitoneally (ip, 1 µg/kg) to wild type mice submitted to the 2.5 mA fear-learning protocol 6 hours after fear conditioning. For hdM4Di (DREADD) experiments, clozapine-N-oxide (CNO, Tocris) was administered at 2mg/kg dissolved in saline 0.9%, and injected intraperitoneally 40 min before test sessions, and 24h and 1week after fear conditioning. 6-[4-(2-Piperidin-1-yl-ethoxy)-phenyl)]-3-pyridin-4-yl-pyrrazolo [1,5-a]-pyrimidine dihydrochloride (Compound C dihydrochloride, AMPK inhibitor; Cat. # CD0339, Chemdea NJ, USA) was administered intraperitoneally (ip, 10 mg/kg) 6 hours after fear conditioning to PTSD-like wild type mice.

[2] = tested on: orexin neurons; experiment: c-fos immunostaining in orexin neurons after fear conditioning; type: in vivo; conditions: Firoc DREADD mice treated with CNO at week 1
Description: Immunocytochemistry. Mice were perfused transcardially under deep anesthesia (sodium pentobarbital, 50 mg/kg, i.p.) with 100 ml of saline buffer 0.9% followed by 100 ml of 4% paraformaldehyde (PFA) in 0.1N, pH 7.4 phosphate buffer (PB), 90 min after the cued-fear conditioning test, the recall context, or under basal conditions. This time point was selected as optimal to see c-Fos staining. For experiments with systemic administration of IGF-I, animals were sacrificed 2 hours after injection. Brains were removed, post-fixed overnight at 4°C in the same fixative, and cut at 50 µm thick sections on a vibratome (Leica VT 1000S). Sections were kept at 4°C, immersed in 0.1N PB with 0.02% sodium azide, until processing. Serial coronal free-floating sections were rinsed in 0.1N PB for 10 min, and a blocking solution containing 10% normal donkey serum, and 0.4% Triton X-100 in 0.1N PB (PB-T) was added and maintained at room temperature for 2 h. Thereafter, sections were incubated overnight at 4°C in the same solution with the corresponding primary antibodies (see Antibody Table). […] Images were taken with confocal microscopy (SP5, Leica Microsystems, Germany) and analyzed with Imaris software (Bitplane).
Image analysis. […] Last, spots were created for Vgat and Vglut2 with an estimated XY size of 0.5 µm, and the number of Vgat and Vglut2 spots in orexin+ cells was counted.

[3] = tested on: orexin neurons; experiment: Patch-clamp recordings in acute hypothalamic slices (DREADD check); type: cell-based; conditions: hypothalamic slices of Orexin-Cre mice transduced with pAAV-hSyn-DIO-hM4D(Gi)-mCherry; CNO 2µM in perfusate
Description: Viral constructs. For chemogenetic experiments using DREADD, a viral construct (pAAV-hSyn-DIO-hM4D(Gi)-mCherry (AAV5; Addgene # 44362); 8.6 x 1012 viral infective units/ml) was locally injected bilaterally to inactivate orexin-cre neurons in Orexin-Cre (littermates) and transgenic mice (Firoc). As control virus, pAAV-hSyn-DIO-mCherry (AAV5; Addgene # 50459) was used. Both viral constructions were obtained from Addgene. Clozapine N-Oxide (CNO, 2mg/kg dissolved in saline 0.9%) was administered ip and 40 min later behavior was assessed, CNO efficacy in orexin neurons was confirmed in acute slices obtained from injected mice. Slices for electrophysiological recordings were prepared from 2-months old Orexin-Cre mice, 4 weeks after injection of the DREADD-mCherry virus into the lateral hypothalamus. […] Recordings were obtained at 30-32 °C from orexin+ neurons identified using fluorescence microscopy (mCherry+) in oxygenated artificial cerebrospinal fluid containing the following: 126 mM NaCl, 26 mM NaHCO3, 2.5 mM KCI, 1.25 mM NaH2PO4, 2 mM MgSO4, 2 mM CaCl2 and 10 mM glucose (pH 7.4). […] Data were analyzed using pClamp (Axon Instruments).

Row | SMILES | freezing behavior in the fifth week after fear learning ([1]; Firoc DREADD mice treated with CNO 1 week after fear learning) | context-dependent fear responses (context recall) 1 week later ([1]; Firoc mice injected with hM4Di virus, after CNO administration) | fear responses after fear conditioning ([1]; Firoc mice with hM4Di DREADD virus in lateral hypothalamus, CNO 2mg/kg ip 40 min before testing) | increased freezing after 2.5 mA shock protocol ([1]; orexin-Cre mice injected with hM4Di virus, CNO administration) | c-fos expression in orexin neurons 5 weeks after fear conditioning [2] | inhibition of orexin neurons (action potential frequency, input resistance) [3] | fear behavior after the PTSD protocol ([1]; wild type mice, 2.5 mA shocks, Compound C ip, 10 mg/kg, 6 hours after fear conditioning)
1 | C[N+]1([O-])CCN(C2=Nc3cc(Cl)ccc3Nc3ccccc32)CC1 [CNO, clozapine-N-oxide] | normal freezing behavior | normalized fear responses | normalized their fear responses | ameliorated | normal | inhibition of orexin neurons was confirmed | –
2 | c1cc(-c2cnn3cc(-c4ccc(OCCN5CCCCC5)cc4)cnc23)ccn1 [Compound C] | – | – | – | – | – | – | normalized fear behavior

— patent EP4085972A1, “AMP-ACTIVATED PROTEIN KINASE INHIBITORS FOR USE IN THE TREATMENT OF PTSD IN A SUBJECT” (Consejo Superior de Investigaciones Científicas (CSIC), priority 2021, dated 2022)
